Experiments:
RAJI cells = tested on: RAJI cells; set-up: method as in PMID 24387159; details: 48 h; read-out: IC50 (mean ± SD) cell viability RAJI; cited from earlier work
[1] = tested on: CMV-luc construct in KG-1 cells; assay: CMV-luc assay (luciferase re-expression from methylated CMV promoter); assay type: cell-based; details: 24 h
human DNMT1 (hDNMT1) = target: T1, human DNMT1 (hDNMT1) (Homo sapiens, UniProt P26358); assay: DNMT1 assay (radioactive Flashplate methylation assay); assay type: biochemical; details: 100 µM compound; for inhibition at 100 µM: read-out: % inhibition ± SD hDNMT1
T1 construct: His; made in house
T1 sequence (P26358 whole entry): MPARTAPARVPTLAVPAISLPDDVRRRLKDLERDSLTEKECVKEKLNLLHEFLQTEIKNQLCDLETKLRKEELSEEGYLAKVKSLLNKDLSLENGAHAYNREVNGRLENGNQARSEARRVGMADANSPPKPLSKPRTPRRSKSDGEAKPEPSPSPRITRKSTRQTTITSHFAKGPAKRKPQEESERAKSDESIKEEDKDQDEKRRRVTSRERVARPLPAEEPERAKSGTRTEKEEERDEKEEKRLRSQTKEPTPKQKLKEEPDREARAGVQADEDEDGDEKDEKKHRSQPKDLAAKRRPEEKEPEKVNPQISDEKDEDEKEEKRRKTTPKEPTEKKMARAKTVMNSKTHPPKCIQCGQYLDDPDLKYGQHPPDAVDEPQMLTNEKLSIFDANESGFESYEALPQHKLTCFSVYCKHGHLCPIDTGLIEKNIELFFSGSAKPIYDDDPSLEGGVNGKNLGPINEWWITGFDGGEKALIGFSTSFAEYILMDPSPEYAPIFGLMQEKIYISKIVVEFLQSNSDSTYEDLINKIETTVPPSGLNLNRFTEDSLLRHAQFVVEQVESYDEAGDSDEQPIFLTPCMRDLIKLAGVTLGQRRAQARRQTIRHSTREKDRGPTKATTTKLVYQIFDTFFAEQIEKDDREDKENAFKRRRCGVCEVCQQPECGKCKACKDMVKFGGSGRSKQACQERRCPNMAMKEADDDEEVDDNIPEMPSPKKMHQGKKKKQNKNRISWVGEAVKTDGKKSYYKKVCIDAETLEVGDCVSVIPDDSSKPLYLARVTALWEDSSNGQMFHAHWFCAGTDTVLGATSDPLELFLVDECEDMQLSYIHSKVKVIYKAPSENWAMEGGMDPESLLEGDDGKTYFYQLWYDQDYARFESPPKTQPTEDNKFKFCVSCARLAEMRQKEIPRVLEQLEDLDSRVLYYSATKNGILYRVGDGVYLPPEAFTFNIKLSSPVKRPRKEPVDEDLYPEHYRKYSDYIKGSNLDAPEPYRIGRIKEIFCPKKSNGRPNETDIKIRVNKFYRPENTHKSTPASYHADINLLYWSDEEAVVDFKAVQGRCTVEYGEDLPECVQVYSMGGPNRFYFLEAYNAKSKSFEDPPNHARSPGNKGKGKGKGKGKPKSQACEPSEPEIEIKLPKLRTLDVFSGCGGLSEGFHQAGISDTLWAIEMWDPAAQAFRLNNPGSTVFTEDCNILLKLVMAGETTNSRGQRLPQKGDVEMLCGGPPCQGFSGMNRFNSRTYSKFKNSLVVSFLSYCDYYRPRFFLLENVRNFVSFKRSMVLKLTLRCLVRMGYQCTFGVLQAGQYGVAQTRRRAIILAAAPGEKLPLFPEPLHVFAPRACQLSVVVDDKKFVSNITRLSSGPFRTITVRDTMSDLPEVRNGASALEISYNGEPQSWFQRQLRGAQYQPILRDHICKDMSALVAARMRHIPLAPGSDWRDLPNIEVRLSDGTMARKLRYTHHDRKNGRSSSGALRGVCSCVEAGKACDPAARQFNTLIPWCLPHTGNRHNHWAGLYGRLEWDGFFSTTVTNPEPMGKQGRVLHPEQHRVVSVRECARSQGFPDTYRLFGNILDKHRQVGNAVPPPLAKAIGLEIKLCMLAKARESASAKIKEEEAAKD
Method: His-DNMT1 (182 kDa, human) was cloned, expressed and purified as described by Lee et al.. The DNMT1 assay was performed according to Gros et al.. Briefly, the reaction was started by addition of 90 nM of DNMT1 on a mix containing the tested compound (up to 1% DMSO), 1 µM of a AdoMet/[methyl-^3H]-AdoMet mix in a ratio of 3-to-1 (isotopic dilution 1*:3) and 0.3 µM of biotinylated DNA duplex in 10 µL final volume. The reaction was incubated at 37°C for 2 h in reaction buffer (20 mM HEPES pH 7.2, 1 mM EDTA, 50 mM KCl, 25 µg/mL BSA). 8 µL are then transferred into a streptavidin-coated Flashplate PLUS (PerkinElmer) containing 190 µL of 20 µM AdoHcy (Sigma-Aldrich) in 50 mM Tris-HCl pH 7.4. The Flashplate was agitated at room temperature for 1 h, washed three times with 200 µL of 0.05% Tween-20 in 50 mM Tris-HCl pH 7.4 and read in 200 µL of 50 mM Tris-HCl pH 7.4 on TopCount NXT (PerkinElmer). Percentages of inhibition were calculated with the same formula as in DNMT3A assay.

[2] = target: T2, C-terminal catalytic domain of human DNMT3A (hDNMT3A) (Homo sapiens, UniProt Q9Y6K1); assay: DNMT3A assay (restriction-based fluorescence assay); assay type: biochemical; details: for inhibition at 100 µM: 100 µM compound; for inhibition at 100 µM / inhibition at 3.2 µM / inhibition at 10 µM / inhibition at 32 µM: read-out: % inhibition ± SD hDNMT3A
T2 construct: catalytic domain of human DNMT3A (residues 623–908), produced as described; made in house
T2 sequence (Q9Y6K1 627-912): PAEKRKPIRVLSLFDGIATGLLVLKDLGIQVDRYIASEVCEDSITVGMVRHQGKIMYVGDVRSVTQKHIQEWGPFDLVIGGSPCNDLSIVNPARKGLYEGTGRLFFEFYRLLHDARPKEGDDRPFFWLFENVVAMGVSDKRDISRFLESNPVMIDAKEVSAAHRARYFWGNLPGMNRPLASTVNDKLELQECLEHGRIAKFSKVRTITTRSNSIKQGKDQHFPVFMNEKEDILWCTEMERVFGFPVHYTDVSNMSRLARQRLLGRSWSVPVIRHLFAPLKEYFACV
Description: DNMT3A enzyme inhibition was adapted from the restriction-based fluorescence assay protocol described in Ceccaldi et al.. Briefly, a 5'-labelled biotin oligonucleotide is hybridized to its complementary strand labelled with 6-carboxyfluorescein at the 3′-end into a 384 well microplate (black Optiplates; Perkin Elmer) pre-coated with avidin. The duplex contains a unique CpG site overlapping with a restriction site of a methylation sensitive restriction enzyme. The C-terminal catalytic domain of human DNMT3A (residues 623–908), produced as described, was added in each well (200 ng/well) and mixed with the chemical compounds at desired concentrations and freshly prepared AdoMet (20 µM final concentration) to start the reaction in a total volume of 50 µL. After 1 hour incubation at 37°C each well were washed three times with PBS, 0.05% Tween-20, 500 mM NaCl and three more times with PBST. Specific fluorescent signals were detected with the methylation-sensitive restriction enzyme HpyCH4IV (NEB) as described and measured on a Perkin Elmer Envision detector. The percentage of inhibition is reported. The formula used to calculate the percentage of inhibition is [(X-Y)/X]×100, where X is the signal determined in the absence of the inhibitor and Y is the signal obtained in the presence of the inhibitor. […] The non-linear regression fittings with sigmoidal dose-response (variable slope) were performed with GraphPad Prism 4.03 (GraphPad Software).

U-937 cells = tested on: U-937 cells; set-up: method as in PMID 24387159; details: 48 h; read-out: IC50 (mean ± SD) cell viability U-937; cited from earlier work
Human G9a = target: T3, Human G9a (Homo sapiens, UniProt Q96KQ7); assay: G9a assay (3H-AdoMet filter-binding); assay type: biochemical; details: 10-dose IC50 mode, 2-fold serial dilution starting at 400 µM
T3 sequence (Q96KQ7 786-1210 limits assumed): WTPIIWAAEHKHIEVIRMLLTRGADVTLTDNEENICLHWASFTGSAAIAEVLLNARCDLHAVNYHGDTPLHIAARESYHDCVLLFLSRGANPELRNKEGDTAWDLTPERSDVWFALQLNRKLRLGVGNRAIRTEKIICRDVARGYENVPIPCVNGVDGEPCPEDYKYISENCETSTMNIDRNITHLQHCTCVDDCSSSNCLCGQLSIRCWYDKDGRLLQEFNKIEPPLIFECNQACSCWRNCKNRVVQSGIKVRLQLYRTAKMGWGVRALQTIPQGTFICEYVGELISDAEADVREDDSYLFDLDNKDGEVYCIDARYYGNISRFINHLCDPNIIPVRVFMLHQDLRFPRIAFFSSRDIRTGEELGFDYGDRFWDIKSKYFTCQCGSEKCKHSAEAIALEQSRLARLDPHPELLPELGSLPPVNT
Method: The reaction buffer was 50 mM Tris-HCl, pH 8.5, 50 mM NaCl, 5 mM MgCl2, 1 mM dithiothreitol (DTT), 1 mM PMSF, and 1% DMSO. Standard substrate concentrations were 5 µM biotinylated H3 (1–21) peptide (AnaSpec) substrate and 0.1 mM AdoMet. For control compound IC50 determinations, the test compounds were diluted in DMSO and then added to the enzyme/substrate mixture in nanoliter amounts by using an acoustic technology (Echo 500; Lab-cyte). The reaction was initiated by the addition of ^3H-AdoMet, and incubated at 30°C for 1 h. The reaction was detected by a filter-binding method. Data analysis was performed using Graph Pad Prism software for curve fits, and GraFit (Erithacus) for global fit of kinetic studies.

[3] = target: T4, human G9a-like protein (GLP) (Homo sapiens, UniProt Q9H9B1); assay: GLP assay (histone methylation inhibition); assay type: biochemical; details: 8 μM inhibitor; read-out: Percent of GLP inhibition
T4 construct: catalytic SET domain (residues 734-1235; pXC758) were purified as described; made in house
T4 sequence (Q9H9B1 765-1266): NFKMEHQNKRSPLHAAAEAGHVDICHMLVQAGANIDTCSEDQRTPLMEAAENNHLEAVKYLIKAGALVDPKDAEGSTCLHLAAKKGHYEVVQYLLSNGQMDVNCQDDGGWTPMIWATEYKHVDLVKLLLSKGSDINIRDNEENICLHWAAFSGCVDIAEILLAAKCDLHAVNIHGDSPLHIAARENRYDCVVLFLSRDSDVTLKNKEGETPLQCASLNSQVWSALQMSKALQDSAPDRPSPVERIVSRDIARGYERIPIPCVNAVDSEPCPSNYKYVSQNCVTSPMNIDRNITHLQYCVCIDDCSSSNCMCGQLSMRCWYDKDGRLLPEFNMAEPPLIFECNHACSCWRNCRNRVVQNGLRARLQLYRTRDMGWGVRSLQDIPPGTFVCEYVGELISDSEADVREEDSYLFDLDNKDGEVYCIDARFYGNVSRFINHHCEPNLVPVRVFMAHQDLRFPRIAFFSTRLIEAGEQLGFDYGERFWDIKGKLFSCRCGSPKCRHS
Method: GLP Assay. Recombinant human G9a-like protein (GLP) C-terminal fragment containing both the ankyrin repeats and catalytic SET domain (residues 734-1235; pXC758) were purified as described. For histone methylation inhibition, the assay was performed in 20 μL reaction containing 4.6 mM [methyl-^3H]-AdoMet, 50 μg/mL histone from calf thymus (SIGMA), 10 μg/mL (0.17 μM) GLP, 100 mM KCl, 5 mM (DTT) and 50 mM Tris-HCl pH 8.5. GLP was pre-incubated with AdoMet and 8 µM inhibitors for 5 min at 30 °C before the addition of the histone substrate. After incubation (5 min), the reaction was terminated by the addition of 20% trichloroacetic acid (TCA, Fisher Scientific). The reaction mixture was spotted on GF/A paper circles (Whatman), washed three times with 3 mL of 10% TCA and once with 3 mL of ethanol. The dried circles were subjected to liquid-scintillation counting with Cytoscint scintillant.

Structure (SMILES) | inhibition at 100 µM (human DNMT1 (hDNMT1)) | inhibition at 100 µM [2] | melting point | inhibition at 10 µM ([2]; 10 µM compound) | inhibition at 32 µM ([2]; 32 µM compound) | also measured
Cc1cc(Nc2ccc(NC(=O)c3ccc(Nc4ccnc5ccccc45)cc3)cc2)nc(N)n1 [SGI-1027, reference compound] | – | – | – | – | – | IC50 (RAJI cells): 9.1 ± 0.8 µM; fold-induction of the luciferase signal (CMV-luc) ([1]; 5 µM): 17 fold; fold-induction of the luciferase signal (CMV-luc) ([1]; 10 µM): 10 fold; fold-induction of the luciferase signal (CMV-luc) ([1]; 25 µM): no induction; % inhibition ± SD hDNMT1 (human DNMT1 (hDNMT1)): 100±0.1%; % inhibition ± SD hDNMT3A ([2]; 3.2 µM compound): 80±4%; % inhibition ± SD hDNMT3A ([2]; 10 µM compound): 72±6%; % inhibition ± SD hDNMT3A ([2]; 32 µM compound): 75±7%; IC50 (U-937 cells): 1700 ± 1100 nM
CN1C(=O)[C@@]23C[C@]4([C@]56C[C@@]78SS[C@@](CO)(C(=O)N7[C@H]5Nc5ccccc56)N(C)C8=O)c5ccccc5N[C@@H]4N2C(=O)[C@]1(CO)SS3 [chaetocin, reference compound] | – | – | – | – | – | IC50 (Human G9a): 8 µM
c1ccc(CN2CCC(Nc3nc(N4CCOCC4)nc4ccccc34)CC2)cc1 [Compound 12, N-(1-benzylpiperidin-4-yl)-2-morpholinoquinazolin-4-amine] | 0% | 7% | – | – | – | –
CC1CCN(c2nc(NC3CCN(Cc4ccccc4)CC3)c3ccccc3n2)CC1 [Compound 8] | 0% | 53 ± 3% | 106 to 108 °C | 14 ± 2% | 35 ± 5% | inhibition at 3.2 µM ([2]; 3.2 µM compound): 7 ± 1%
CC1CCCCN1c1nc(NC2CCN(Cc3ccccc3)CC2)c2ccccc2n1 (centres unmarked) [Compound 9] | 0% | 47 ± 5% | 128 to 129 °C | 5 ± 2% | 14 ± 7% | inhibition at 3.2 µM ([2]; 3.2 µM compound): 1 ± 1%
c1ccc(CN2CCC(Nc3nc(N4CCCCC4)nc4ccccc34)CC2)cc1 [Compound 6] | 0% | 57 ± 8% | – | 14 ± 6% | 33 ± 6% | inhibition at 3.2 µM ([2]; 3.2 µM compound): 11 ± 5%
c1ccc(CN2CCC(Nc3nc(N4CCSCC4)nc4ccccc34)CC2)cc1 [Compound 11] | 0% | 42 ± 3% | 155 to 157 °C | 8 ± 2% | – | –
CN(C)CCCNc1nc(NC2CCN(Cc3ccccc3)CC2)c2ccccc2n1 [Compound 18] | 0% | 8 ± 1% | – | – | – | –
COc1cc2nc(N3CCCN(C)CC3)nc(NC3CCN(Cc4ccccc4)CC3)c2cc1OC [Compound 1, BIX-01294, reference compound] | 30% | 12 ± 3% | – | – | – | % inhibition ± SD hDNMT1 (human DNMT1 (hDNMT1); 100 µM): 35±8%; inhibition at 8 µM [3]: 91.7%
O=C(c1ccccc1)N1CCN(c2nc(NC3CCN(Cc4ccccc4)CC3)c3ccccc3n2)CC1 [Compound 15] | 0% | 23 ± 2% | 213 to 215 °C | – | – | –
CN1CCN(c2nc(NC3CCN(Cc4ccccc4)CC3)c3ccccc3n2)CC1 [Compound 5] | 0% | 30 ± 8% | – | 0% | 14 ± 3% | –
CN(C)CCNc1nc(NC2CCN(Cc3ccccc3)CC2)c2ccccc2n1 [Compound 17] | 0% | 10% | 120 to 122 °C | – | – | –
c1ccc(CN2CCC(Nc3nc(N4CCCCCC4)nc4ccccc34)CC2)cc1 [Compound 7] | 0% | 57 ± 3% | 119 to 122 °C | 16 ± 2% | 32 ± 3% | inhibition at 3.2 µM ([2]; 3.2 µM compound): 7 ± 2%
OCCNc1nc(NC2CCN(Cc3ccccc3)CC2)c2ccccc2n1 [Compound 16] | 0% | 37 ± 4% | 116 to 118 °C | 8 ± 3% | – | –

Source: PMC4014597 (PLoS ONE, 2014)
